Among the test systems are BT-549 breast; HS 578T breast; PC-3 prostate; MDA-N.
What all share (experiment): NCI tumour cell line growth inhibition, 48 h

“And” between values parts separate entries of the source, which are not always exact repeats. Identical values can stand only once.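 Five compound concentrations were applied to cells in 96-well plates for 48 hours; endpoints were derived by simple linear interpolation of the resulting dose-response curve. GI50: concentration for 50% inhibition of growth. TGI: total growth inhibition.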

As to `COC(=O)[C@@H]1CCCN1C(=O)[C@@H]1CCCN1C(=O)[C@@H](Cc1c[nH]c2ccccc12)NC(=S)Nc1cc(C(F)(F)F)cc(C(F)(F)F)c1`, the GI50 in the experiment on BT-549 breast was 4.75 µM; in the experiment on HS 578T breast, 7.81 µM; with PC-3 prostate, 2.95 µM. Further, the TGI with BT-549 breast is 28.6 µM; with HS 578T breast, above 100 µM; in the experiment on PC-3 prostate it was 24.9 µM.

As for `C=C[C@]1(C)C=C2C(=O)[C@@]3(O)OC[C@@]4(CCCC(C)(C)C43O)C2(O)C(O)C1` (some centres undefined), the GI50 in the experiment on BT-549 breast is 3.47 µM; in the experiment with HS 578T breast it was 5.13 µM; in the experiment on PC-3 prostate it was 14.9 µM. In addition, the TGI in the experiment on BT-549 breast was determined as 13.2 µM; in the experiment on HS 578T breast it was 22.2 µM; with PC-3 prostate it was 32.7 µM.

As for `CCOC(=O)c1cnn(-c2ccnc3c(C(F)(F)F)cccc23)c1N`, the GI50 is 70.7 µM in the experiment on BT-549 breast, 24.8 µM in the experiment on HS 578T breast and above 100 µM in the experiment with PC-3 prostate. The TGI in the experiment with BT-549 breast, in the experiment on HS 578T breast and in the experiment on PC-3 prostate was above 100 µM throughout.

Regarding `C[C@H](CS(C)(=O)=O)Nc1ncc2cc(Oc3ccc(F)cc3F)c(=O)n(C)c2n1`, the GI50 with BT-549 breast, in the experiment on HS 578T breast and with PC-3 prostate was above 25 µM in each case. Moreover, the TGI with BT-549 breast, in the experiment on HS 578T breast and with PC-3 prostate was above 25 µM in each case.

Take `S=c1ssc(Sc2ccccn2)c1Cl`: in the experiment on PC-3 prostate, the GI50 was 11.9 µM and the TGI stood at 24.2 µM.

As to `COc1ccc(-c2ccc(/C=N/n3c(COc4ccc(Cl)cc4)n[nH]c3=S)o2)c([N+](=O)[O-])c1`, the values for the GI50 in the experiment on BT-549 breast, in the experiment with HS 578T breast and with PC-3 prostate were 13.6 µM, 47.7 µM and 12.2 µM, respectively. Also, the TGI was 50 µM in the experiment with BT-549 breast, above 100 µM in the experiment on HS 578T breast and 35.9 µM in the experiment with PC-3 prostate.

On to `N#CC1C(N)=NNC12Nc1ccccc1N2` (centres undefined), for which the GI50 in the experiment with BT-549 breast was 6.55 µM; with HS 578T breast, 4.8 µM; with PC-3 prostate, 22.2 µM. Besides, the TGI in the experiment with BT-549 breast is 31.6 µM; in the experiment on HS 578T breast, 25.7 µM; in the experiment on PC-3 prostate, above 100 µM.

As for `Cc1ccc2c(c1)ncn2-c1ncnc2c1CC(C)c1ccccc1N2C` (centres undefined), the results for the GI50 in the experiment on BT-549 breast, in the experiment with HS 578T breast and in the experiment with PC-3 prostate were 0.314 µM, 0.104 µM and 0.0561 µM, respectively. Moreover, the TGI in the experiment on BT-549 breast was determined as 8.25 µM; in the experiment on HS 578T breast, 51 µM; in the experiment with PC-3 prostate, 17.7 µM.

For the compound `COc1ccc2c(c1)C(=O)c1c-2n(CCCN2CCOCC2)c(=O)c2ccccc12`, the GI50 with BT-549 breast is 2.55 µM; in the experiment with HS 578T breast, 8.95 µM; in the experiment on PC-3 prostate it was 8.67 µM. Further, the TGI with BT-549 breast was 13.6 µM; in the experiment with HS 578T breast it was above 100 µM; in the experiment with PC-3 prostate it was above 100 µM.

With `COc1cnc2c(c1)C(=O)c1c-2n(CCCN2CCCC2)c(=O)c2cc(Cl)ccc12`, the GI50 was 3.8 µM in the experiment with BT-549 breast, 6.87 µM in the experiment with HS 578T breast and 0.859 µM in the experiment on PC-3 prostate. In addition, the TGI with BT-549 breast was found to be 12.9 µM; with HS 578T breast, 17.9 µM; in the experiment on PC-3 prostate, 9.48 µM.

As to `C=C(C)[C@@H]1CC[C@@]2(C)[C@H]1[C@H]1CCC3[C@@]4(C)CC[C@H](O)C(C)(C)[C@@H]4CC[C@@]3(C)[C@]1(C)C[C@@H]2O` (some centres undefined), the TGI in the experiment with MDA-N, in the experiment on BT-549 breast and with PC-3 prostate was above 100 µM each time.

As to `Cc1c(C)c2ccc(OC/C=C3\CCC(=O)O3)cc2oc1=O`, the GI50 in the experiment on BT-549 breast was 15.2 µM; in the experiment on HS 578T breast, 20.2 µM; in the experiment with PC-3 prostate, 13.4 µM. In addition, the TGI in the experiment on BT-549 breast was 28.9 µM; in the experiment on HS 578T breast, 55.9 µM; in the experiment with PC-3 prostate, 31 µM.

In the case of `COc1ccccc1-c1c(C)nn2c(NCc3ccccn3)cc(C)nc12`, the GI50 in the experiment with BT-549 breast was above 37.3 µM; in the experiment on HS 578T breast, above 44.7 µM; in the experiment on PC-3 prostate, 30.6 µM. Also, the TGI in the experiment with BT-549 breast, with HS 578T breast and in the experiment with PC-3 prostate was above 50 µM each time.

In the case of `C[C@H](CSC(=O)c1ccccc1)C(=O)N1c2ccccc2C[C@H]1C(=O)O`, the TGI in the experiment with MDA-N, with BT-549 breast, in the experiment on HS 578T breast and in the experiment on PC-3 prostate was above 100 µM throughout.

Regarding `CCN1C(=O)N(CC)C2C1NN=c1s/c(=C3\C(=O)N(C)c4ccccc43)c(=O)n12` (centres undefined), the GI50 with BT-549 breast is 1.39 µM; in the experiment on HS 578T breast, 0.542 µM; in the experiment on PC-3 prostate it was 1.14 µM. For the same compound, the TGI in the experiment with BT-549 breast was 37.9 µM; in the experiment on HS 578T breast, above 39.9 µM; with PC-3 prostate, above 100 µM.

For the compound `CCCCCc1c(C)[nH]c(/C=C2\N=C(c3ccc[nH]3)C=C2Oc2ccc(Cl)cc2)c1C`, the GI50 with BT-549 breast was 0.222 µM and 0.352 µM; with HS 578T breast, 0.126 µM and 0.0271 µM; in the experiment on PC-3 prostate, 0.115 µM and 0.0236 µM. Also, the TGI is 19.7 µM in the experiment on BT-549 breast; 0.65 µM and 0.4 µM in the experiment on HS 578T breast; 7.22 µM in the experiment on PC-3 prostate.

On to `Nc1nc(Nc2cccc(F)c2)nc2ccccc12`, for which the GI50 with BT-549 breast was 30.2 µM; with HS 578T breast, 20 µM; in the experiment on PC-3 prostate it was 31 µM. Moreover, the TGI in the experiment with BT-549 breast is above 100 µM; in the experiment on HS 578T breast, 58 µM; in the experiment with PC-3 prostate, above 100 µM.

Consider `CS(=O)(=O)Nc1cc(-c2ccc3ncnc(Nc4ccc5c(cnn5Cc5ccc(F)cc5)c4)c3c2)cnc1Cl`, for which the GI50 was 0.957 µM in the experiment with BT-549 breast, 0.246 µM in the experiment on HS 578T breast and 1.8 µM in the experiment on PC-3 prostate. The results for the TGI in the experiment on BT-549 breast, in the experiment with HS 578T breast and with PC-3 prostate were 6.47 µM, 2.04 µM and 8.68 µM, respectively.

Take `Cn1cc(-c2ccc(CNc3cc(-c4cnc5cc(OCCCN6CCCC6)ccn45)ncn3)cc2)cn1`: the GI50 in the experiment with BT-549 breast is 12.6 µM; with HS 578T breast it was 3.52 µM; in the experiment with PC-3 prostate it was 3.63 µM. The TGI was 27.2 µM in the experiment with BT-549 breast, 26.2 µM in the experiment on HS 578T breast and above 100 µM in the experiment on PC-3 prostate.

As for `NCc1ccc(-n2c(-c3nonc3N)nc3cnccc32)cc1`, the figures for the GI50 in the experiment on BT-549 breast, with HS 578T breast and in the experiment with PC-3 prostate were 0.964 µM, 0.674 µM and above 19.3 µM, respectively. Further, the TGI in the experiment on BT-549 breast, in the experiment with HS 578T breast and in the experiment with PC-3 prostate was above 25 µM throughout.

With `CC1=CC(=O)C(C(C)=Nc2ccccc2Cl)C(=O)O1` (centres undefined), in the experiment with HS 578T breast, the GI50 was above 100 µM and the TGI is above 100 µM. In the experiment with PC-3 prostate, the GI50 was above 100 µM and the TGI was above 100 µM.

Turning to `CC(C)(Br)C(=O)/C=C/c1ccccc1`, the TGI was 21.4 µM with MDA-N, 3.76 µM in the experiment on BT-549 breast, above 60.3 µM in the experiment with HS 578T breast and 33.7 µM with PC-3 prostate.

These data come from PubChem BioAssay (NCI).
